Measurements from patent US20160024083A1, “COMPOUNDS AND METHODS FOR TREATING CANCERS” (HEALTH RESEARCH, INC., priority 2013, published 2016).
Where two headings read alike, the source gives them in different places.

Columns and labels:
Format in all cases: cell-based
CWR22R = assay: cells
Protocol: FIG. 21. Toxicity of PLA1055 to CWR22R cells in vitro depending on time of incubation. PLA1055 was added to CWR22R in full range of concentrations for the periods of time shown on the right. After that drug containing media were changed for drug free and survival of cells was detected at 72 hours after start of treatment using Alamar Blue assay (Promega).
(§1) This example provides a table (below) of the compounds of the present disclosure and their activity towards four different cell lines (i.e., CWR22R, HeLa, PC3, and MDA-MB-231). The IC50 for inhibition of growth is divided into 4 categories: A<1 μM, B 1-5 μM, C 5-20 μM, D>20 μM.
(§2) All compounds were tested for toxicity using 4 cells lines, target cells—CWR22R and non-target cells, Hela, PC3 and MDA-MB-231 (FIGS. 1A-F).
LC50 data of in vitro 72 hours cytotoxicity assay are included in this table for comparison.
An in vitro experiment was run to detect the concentration of PLA1055 needed to kill all tumor cells in vitro (LC90) during different periods of time (30 minutes-72 hours, FIG. 21)).

Hela = assay: Inhibition of growth / toxicity in non-target Hela cells
Protocol: as §1, §2

PC3 = assay: Inhibition of growth / toxicity in non-target PC3 cells; details: Homo sapiens, PC-3
Protocol: as §1, §2

MDA-MB-231 = assay: Inhibition of growth / toxicity in non-target MDA-MB-231 cells
Protocol: as §1, §2

[1] = Homo sapiens, 22Rv1, CWR22R, read-out: IC50 for inhibition of growth
[2] = CWR22R, read-out: IC50 for inhibition of growth

| Structure (SMILES) | IC50 (CWR22R; Homo sapiens, 22Rv1, read-out: IC50 for inhibition of growth, CWR22R) [µM] | IC50 (Hela; Homo sapiens, HeLa) [µM] | IC50 (PC3) [µM] | IC50 (MDA-MB-231; Homo sapiens) [µM] | IC50 (CWR22R; [1]) [µM] | IC50 (CWR22R; [2]) [µM] | IC50 (Hela; Hela) [µM] | IC50 (MDA-MB-231) [µM] |
| --- | --- | --- | --- | --- | --- | --- | --- | --- |
| CCCn1c2ccccc2c2cc(Br)ccc21 [Compound 1-1, 3-Bromo-9-propyl-9H-carbazole] | 1 to 5 | > 20 | > 20 | > 20 | – | – | – | – |
| CC(=O)c1ccc2c(c1)c1ccccc1n2CCCF [Compound 1-2] | – | > 20 | > 20 | > 20 | < 1 | – | – | – |
| CCCn1c2ccccc2c2cc(-c3cccs3)ccc21 [Compound 2-1, 9-Propyl-3-thiophen-2-yl-9H-carbazole] | – | > 20 | > 20 | > 20 | < 1 | – | – | – |
| CCCn1c2ccccc2c2cc(-c3ccc(C)s3)ccc21 [Compound 2-2] | – | > 20 | > 20 | > 20 | > 20 | – | – | – |
| CCCn1c2ccccc2c2cc(-c3cnoc3)ccc21 [Compound 2-5] | – | > 20 | > 20 | > 20 | < 1 | – | – | – |
| CCn1c2ccccc2c2cc(-c3cccs3)ccc21 [Compound 2-6] | – | > 20 | – | > 20 | 1 to 5 | – | – | – |
| CCCn1c2ccccc2c2cc(-c3ncco3)ccc21 [Compound 4-1, 3-Oxazol-2-yl-9-propyl-9H-carbazole] | – | > 20 | > 20 | > 20 | 1 to 5 | – | – | – |
| CCCn1c2ccccc2c2cc(-c3nccs3)ccc21 [Compound 4-2] | – | > 20 | > 20 | > 20 | > 20 | – | – | – |
| CCn1c2ccccc2c2cc(-c3ccccn3)ccc21 [Compound 4-4] | – | > 20 | > 20 | > 20 | 5 to 20 | – | – | – |
| CCCn1c2ccccc2c2cc(-c3ccccn3)ccc21 [Compound 4-5] | – | > 20 | > 20 | > 20 | 1 to 5 | – | – | – |
| CCCn1c2ccc(C(C)=O)cc2c2c(F)cccc21 [Compound 5-1, 1-(5-Fluoro-9-propyl-9H-carbazol-3-yl)-ethanone] | – | > 20 | > 20 | > 20 | < 1 | – | – | – |
| CCCn1c2ccc(C(C)=O)cc2c2ccc(F)cc21 [Compound 5-2] | – | > 20 | > 20 | > 20 | 5 to 20 | – | – | – |
| CC(=O)c1ccc2c(c1)c1c(C(N)=O)cccc1n2CCCF [Compound 5-8] | – | > 20 | > 20 | > 20 | < 1 | – | – | – |
| CCCn1c2ccccc2c2cc(C(C)=O)cnc21 [Compound 5-10] | – | > 20 | > 20 | > 20 | < 1 | – | – | – |
| CCOC(=O)c1cnc2c(c1)c1ccccc1n2CCCF [Compound 5-11, 9-(3-fluoropropyl)-9H-pyrido[2,3-b]indole-3-carboxylic acid ethyl ester] | – | > 20 | > 20 | > 20 | 1 to 5 | – | – | – |
| CCCn1c2ccc(C(C)=O)cc2c2ncccc21 [Compound 5-13] | – | > 20 | > 20 | > 20 | 1 to 5 | – | – | – |
| CCCn1c2ccc(C(C)=O)cc2c2c(OC)cccc21 [Compound 6-1, 1-(5-Methoxy-9-propyl-9H-carbazol-3-yl)-ethanone] | – | > 20 | > 20 | > 20 | < 1 | – | – | – |
| CNC(=O)c1cccc2c1c1cc(C(C)=O)ccc1n2CCCF [Compound 6-4] | – | > 20 | > 20 | > 20 | 5 to 20 | – | – | – |

| Structure (SMILES) | IC50 (CWR22R; Homo sapiens, 22Rv1, read-out: IC50 for inhibition of growth, CWR22R) [µM] | IC50 (Hela; Homo sapiens, HeLa) [µM] | IC50 (PC3) [µM] | IC50 (MDA-MB-231; Homo sapiens) [µM] | IC50 (CWR22R; [1]) [µM] | IC50 (CWR22R; [2]) [µM] | IC50 (Hela; Hela) [µM] | IC50 (MDA-MB-231) [µM] |
| --- | --- | --- | --- | --- | --- | --- | --- | --- |
| NC(=O)c1cnc2c(c1)c1ccccc1n2CCCF [Compound 7-1, 9-(3-Fluoropropyl)-9H-pyrido[2,3-b]indole-3-carboxamide] | – | > 20 | > 20 | > 20 | 1 to 5 | – | – | – |
| CCCn1c2ccccc2c2cc(-c3nnco3)ccc21 [Compound 8-1, 3-[1,3,4]Oxadiazol-2-yl-9-propyl-9H-carbazole] | – | > 20 | > 20 | > 20 | < 1 | – | – | – |
| CCCn1c2ccccc2c2cc(-c3nncs3)ccc21 [Compound 8-3] | – | > 20 | > 20 | > 20 | > 20 | – | – | – |
| FCCCn1c2ccccc2c2cc(-c3nnco3)cnc21 [Compound 8-4] | – | > 20 | > 20 | > 20 | < 1 | – | – | – |
| FCCCn1c2ccccc2c2cc(-c3nnco3)ccc21 [Compound 9-1, 9-(3-Fluoropropyl)-3-[1,3,4]oxadiazol-2-yl-carbazole] | – | > 20 | > 20 | > 20 | < 1 | – | – | – |
| FCCCn1c2ccc(-c3nnco3)cc2c2ncccc21 [Compound 10-1, 5-(3-Fluoropropyl)-8-[1,3,4]oxadiazol-2-yl-5H-pyrido[3,2-b]indole] | – | > 20 | – | > 20 | – | > 20 | – | – |
| FCCCn1c2ccc(-c3nnco3)cc2c2ncccc21 [Compound 10-2] | – | – | – | – | – | 5 to 20 | > 20 | > 20 |
| FCCCn1c2ccccc2c2cc(-c3cnco3)ccc21 [Compound 11-1, 9-(3-Fluoropropyl)-3-oxazol-5-yl-9H-carbazole] | – | > 20 | > 20 | > 20 | < 1 | – | – | – |
| CCCn1c2ccccc2c2cc(-c3cnco3)ccc21 [Compound 11-2] | – | > 20 | > 20 | > 20 | < 1 | – | – | – |
| CCCn1c2ccccc2c2cc(-c3cocn3)ccc21 [Compound 12-1, 3-Oxazol-4-yl-9-propyl-9H-carbazole] | – | > 20 | > 20 | > 20 | > 20 | – | – | – |
| CCCn1c2ccccc2c2cc(-c3ccno3)ccc21 [Compound 13-1, 3-Isoxazol-5-yl-9-propyl-9H-carbazole] | – | > 20 | > 20 | > 20 | 1 to 5 | – | – | – |
| FCCCn1c2ccccc2c2cc(-c3ccno3)ccc21 [Compound 13-2] | – | > 20 | > 20 | > 20 | < 1 | – | – | – |
| FCCCn1c2ccccc2c2cc(-n3cncn3)ccc21 [Compound 14-1, 9-(3-Fluoropropyl)-3-[1,2,4]triazol-1-yl-9H-carbazole] | – | > 20 | > 20 | > 20 | < 1 | – | – | – |
| CCCn1c2ccccc2c2cc(C3=NCCO3)ccc21 [Compound 15-2] | – | > 20 | > 20 | > 20 | > 20 | – | – | – |
| CC(=O)c1cc2c3ccccc3n(CCCF)c2cn1 [Compound 17-1, 1-[9-(3-Fluoropropyl)-9H-beta-carbolin-3-yl]-ethanone] | – | > 20 | > 20 | > 20 | < 1 | – | – | – |
| CCCn1c2ccccc2c2cc(C(C)=O)ncc21 [Compound 17-3] | – | > 20 | > 20 | > 20 | 5 to 20 | – | – | – |
| CC(=O)c1ccc2c(c1)c1ccccc1n2CCC(F)F [Compound 18-2, 1-[9-(3,3-Difluoropropyl)-9H-carbazol-3-yl]-ethanone] | – | > 20 | > 20 | > 20 | < 1 | – | – | – |
| CCCn1c2ccc(C(C)=O)cc2c2c(C(N)=O)cccc21 [Compound 19-1, 6-Acetyl-9-propyl-9H-carbazole-4-carboxamide] | – | > 20 | > 20 | > 20 | 1 to 5 | – | – | – |
